Test results from ChEMBL document CHEMBL5370525, “Antibiotics with novel mode of action as new weapons to fight antimicrobial resistance” (Eur J Med Chem, 2023).
≈ marks a conversion by molar mass, not a printed value.

What was measured:
Acinetobacter baumannii = assay: Antibacterial activity against Acinetobacter baumannii clinical isolates assessed as inhibition of bacterial growth incubated for 44 hrs by CLSI-based broth microdilution assay; type: functional
Escherichia coli [1] = assay: Antibacterial activity against Escherichia coli clinical isolates assessed as inhibition of bacterial growth incubated for 44 hrs by CLSI-based broth microdilution assay; type: functional
Klebsiella pneumoniae = assay: Antibacterial activity against Klebsiella pneumoniae clinical isolates assessed as inhibition of bacterial growth incubated for 44 hrs by CLSI-based broth microdilution assay; type: functional
[2] = Binding affinity to N-terminal His-tagged Full-length human mitochondrial MetRS1 expressed in Escherichia coli assessed as inhibition constant by tRNA aminoacylation/ATP:PPi assay; type: mitochondria, Mitochondria
Clostridioides difficile [3] = assay: Antibacterial activity against Clostridium difficile clinical isolates assessed as inhibition of bacterial growth incubated for 44 hrs by CLSI-based broth microdilution assay; type: functional
Bifidobacterium sp. = assay: Antibacterial activity against Bifidobacterium sp. clinical isolates assessed as inhibition of bacterial growth incubated for 48 hrs by CLSI-based Serial 2-fold dilution; type: functional
[4] = Binding affinity to N-terminal His-tagged Full-length Escherichia coli MetRS2 expressed in Escherichia coli assessed as inhibition constant by tRNA aminoacylation/ATP:PPi assay
Lactobacillus sp. = assay: Antibacterial activity against Lactobacillus sp. clinical isolates assessed as inhibition of bacterial growth incubated for 48 hrs by CLSI-based Serial 2-fold dilution; type: functional
[5] = Binding affinity to N-terminal His-tagged Full-length Streptococcus pneumoniae MetRS1 expressed in Escherichia coli assessed as inhibition constant by tRNA aminoacylation/ATP:PPi assay
[6] = Binding affinity to N-terminal His-tagged Full-length Staphylococcus aureus MetRS1 expressed in Escherichia coli assessed as inhibition constant by tRNA aminoacylation/ATP:PPi assay
[7] = Binding affinity to N-terminal His-tagged Full-length human cytoplasmic MetRS2 expressed in Escherichia coli assessed as inhibition constant by tRNA aminoacylation/ATP:PPi assay; type: subcellular, Cytoplasm
Staphylococcus aureus [8] = assay: Antibacterial activity against Meticillin-resistant Staphylococcus aureus clinical isolates assessed as inhibition of bacterial growth incubated for 44 hrs by CLSI-based broth microdilution assay; type: functional
Actinomyces sp. = assay: Antibacterial activity against Actinomyces sp. clinical isolates assessed as inhibition of bacterial growth incubated for 48 hrs by CLSI-based Serial 2-fold dilution; type: functional
[9] = Oral bioavailability in Beagle dog; type: ADME, organism-based, Canis lupus familiaris; details: in vivo
[10] = Binding affinity to N-terminal His-tagged Full-length Clostridium difficile MetRS1 expressed in Escherichia coli assessed as inhibition constant by tRNA aminoacylation/ATP:PPi assay; parameters: species or system Clostridioides difficile
[11] = Oral bioavailability in Sprague-Dawley rat; type: ADME, organism-based; details: in vivo
[12] = Binding affinity to N-terminal His-tagged Full-length Haemophilus influenzae MetRS2 expressed in Escherichia coli assessed as inhibition constant by tRNA aminoacylation/ATP:PPi assay
Enterococcus faecium = assay: Antibacterial activity against Vancomycin-resistant Enterococcus faecium clinical isolates assessed as inhibition of bacterial growth incubated for 44 hrs by CLSI-based broth microdilution assay; type: functional
Pseudomonas aeruginosa = assay: Antibacterial activity against Pseudomonas aeruginosa clinical isolates assessed as inhibition of bacterial growth incubated for 44 hrs by CLSI-based broth microdilution assay; type: functional
[13] = Oral bioavailability in hamster; type: ADME, organism-based, Mesocricetus auratus; details: in vivo
Clostridioides difficile [14] = assay: Antibacterial activity against Clostridium difficile clinical isolates assessed as inhibition of bacterial growth; type: functional
Staphylococcus aureus [15] = assay: Antibacterial activity against Staphylococcus aureus assessed as inhibition of bacterial growth; type: functional
Streptococcus pneumoniae = assay: Antibacterial activity against Levofloxacin-nonsusceptible Streptococcus pneumoniae assessed as inhibition of bacterial growth by CLSI-based assay; type: functional
Staphylococcus aureus [16] = assay: Antibacterial activity against Staphylococcus aureus 456 infected in neutropenic BALB/c mouse model assessed as reduction in lung bacterial load at 1.56 to 400 mg/kg, sc administered every 6 hr and measured after 24 hrs by CLSI-based assay (reference value: 5.6 to 6.3 log10 CFU); type: functional; details: dose 1.56-400 mg/kg, pooled result: one value given for 6 cell lines, strains, targets or settings
Escherichia coli [17] = assay: Antibacterial activity against Levofloxacin-nonsusceptible Escherichia coli assessed as inhibition of bacterial growth by CLSI-based assay; type: functional
Staphylococcus aureus [18] = assay: Antibacterial activity against levofloxacin-resistant Staphylococcus aureus assessed as inhibition of bacterial growth by CLSI-based assay; type: functional
[19] = Cmax in mouse at 1 mg/kg, po incubated for 24 hrs by LC-MS-MS analysis; type: ADME, organism-based; parameters: time 24 hrs, dose 1 mg/kg, route po; details: in vivo
[20] = AUC (0 to t) in mouse at 0.3 mg/kg, po incubated for 24 hrs by LC-MS-MS analysis; type: ADME, organism-based; parameters: dose 0.3 mg/kg, time 24 hrs, route po; details: in vivo
[21] = AUC (0 to t) in mouse at 0.6 mg/kg, po incubated for 24 hrs by LC-MS-MS analysis; type: ADME, organism-based; parameters: dose 0.6 mg/kg, time 24 hrs, route po; details: in vivo
[22] = Plasma protein binding in human at 0.2 to 10 ug/ml by equilibrium dialysis; type: ADME, cell-free; details: at 0.2 to 10 µg/mL, dose 0.2-10 µg/ml, read-out: PPB
[23] = Cmax in mouse at 0.3 mg/kg, po incubated for 24 hrs by LC-MS-MS analysis; type: ADME, organism-based; parameters: dose 0.3 mg/kg, time 24 hrs, route po; details: in vivo
Staphylococcus aureus [24] = assay: Post antibiotic effect against methicillin sensitive Staphylococcus aureus 29213 at 32 times of MIC incubated for 4 hrs by; type: functional
[25] = Plasma protein binding in mouse at 0.2 to 10 ug/ml by equilibrium dialysis; type: ADME, cell-free; details: at 0.2 to 10 µg/mL, dose 0.2-10 µg/ml, read-out: PPB
[26] = Cmax in mouse at 0.6 mg/kg, po incubated for 24 hrs by LC-MS-MS analysis; type: ADME, organism-based; parameters: dose 0.6 mg/kg, time 24 hrs, route po; details: in vivo
[27] = AUC (0 to t) in mouse at 1 mg/kg, po incubated for 24 hrs by LC-MS-MS analysis; type: ADME, organism-based; parameters: dose 1 mg/kg, time 24 hrs, route po; details: in vivo
Staphylococcus aureus [28] = assay: Post antibiotic effect against methicillin sensitive Staphylococcus aureus 29213 at 128 times of MIC incubated for 4 hrs by; type: functional
[29] = Elimination half life in mouse at 0.3 to 1 mg/kg, po incubated for 24 hrs by LC-MS/MS analysis; type: ADME, organism-based; details: in vivo, dose 0.3-1 mg/kg, read-out: beta t1/2 (converted)
[30] = Plasma protein binding in dog at 0.2 to 10 ug/ml by equilibrium dialysis; type: ADME, cell-free, Canis lupus familiaris; details: at 0.2 to 10 µg/mL, dose 0.2-10 µg/ml, read-out: PPB
Staphylococcus aureus [31] = assay: Antibacterial activity against Staphylococcus aureus clinical isolate assessed as bacterial growth inhibtion by CLSI-based broth microdilution method; type: functional
[32] = Plasma protein binding in Sprague-Dawley rat at 0.2 to 10 ug/ml by equilibrium dialysis; type: ADME, cell-free; details: at 0.2 to 10 µg/mL, dose 0.2-10 µg/ml, read-out: PPB
Staphylococcus aureus [33] = assay: Antibacterial activity against Staphylococcus aureus smith infected oral dosed CD-1 mouse; type: functional
Staphylococcus aureus [34] = assay: Antibacterial activity against Staphylococcus aureus smith infected CD-1 mouse assessed as survival rate at 1 mg/kg, po relative to control; type: functional

## O=c1cc(NCCCN[C@@H]2CCOc3c(Br)cc(Br)cc32)[nH]c2ccsc12 [CRS-3123]
Acinetobacter baumannii
  MIC: > 32 µg/mL
Escherichia coli [1]
  MIC: > 32 µg/mL
Klebsiella pneumoniae
  MIC: > 32 µg/mL
[2]
  Ki: 28 nM
Clostridioides difficile [3]
  MIC: 0.5 µg/mL (≈ 0.974 µM)
Bifidobacterium sp.
  MIC: > 32 µg/mL
[4]
  Ki: 1900 nM
Lactobacillus sp.
  MIC: > 32 µg/mL
[5]
  Ki: 0.08 nM
[6]
  Ki: 0.017 nM
[7]
  Ki: > 20000 nM
Staphylococcus aureus [8]
  MIC: 0.015 µg/mL (≈ 0.0292 µM)
Actinomyces sp.
  MIC: > 32 µg/mL
[9]
  bioavailability: < 1%
[10]
  Ki: 0.02 nM
[11]
  bioavailability: < 1%
[12]
  Ki: 178 nM
Enterococcus faecium
  MIC: < 0.004 µg/mL
Pseudomonas aeruginosa
  MIC: > 32 µg/mL
[13]
  bioavailability: 0.6%

## CCc1c(Cl)c(O)c(Cl)c(O)c1C(=O)O[C@H]1[C@H](O)[C@H](OC)[C@H](OC/C2=C\C=C\C[C@H](O)/C(C)=C/[C@H](CC)[C@@H](O[C@@H]3OC(C)(C)[C@@H](OC(=O)C(C)C)[C@H](O)[C@@H]3O)/C(C)=C/C(C)=C/C[C@@H]([C@@H](C)O)OC2=O)O[C@@H]1C [FIDAXOMICIN]
Clostridioides difficile [14]
  MIC: 0.15 µg/mL (≈ 0.142 µM)

## Cn1cc(NC(=O)c2cc(NC(=O)c3ccc(/C=C/c4cnc5ccccc5c4)cc3)cn2C)cc1C(=O)NCCN1CCOCC1 [MGB-BP-3]
Staphylococcus aureus [15]
  MIC80: < 0.2 µM

## O=c1ccc2ncc(=O)n3c2n1C[C@H]3CN1CCC(NCc2cc3c(cn2)OCCC3)CC1 [GEPOTIDACIN]
Streptococcus pneumoniae
  MIC90: 0.5 µg/mL (≈ 1.11 µM)
Staphylococcus aureus [16]
  Activity: 1.4 log10CFU
Escherichia coli [17]
  MIC90: 0.5 µg/mL (≈ 1.11 µM)
Staphylococcus aureus [18]
  MIC90: 0.5 µg/mL (≈ 1.11 µM)

## Cc1c(CN(C)C(=O)/C=C/c2cnc3c(c2)CCC(=O)N3COP(=O)(O)O)oc2ccccc12 [AFABICIN]
[19]
  Cmax: 304 ng/mL
[20]
  AUC(0-t) at 24 h: 367 ng·h/mL
[21]
  AUC(0-t) at 24 h: 196 ng·h/mL
[22]
  fraction unbound: < 0.05
[23]
  Cmax: 154 ng/mL
Staphylococcus aureus [24]
  PAE: 0.1 h
[25]
  fraction unbound: < 0.05
[26]
  Cmax: 196 ng/mL
[27]
  AUC(0-t) at 24 h: 1030 ng·h/mL
Staphylococcus aureus [28]
  PAE: 1.1 h
[29]
  half-life: 5 h
[30]
  fraction unbound: < 0.05
Staphylococcus aureus [31]
  MIC90: < 0.015 µg/mL
[32]
  fraction unbound: < 0.05
Staphylococcus aureus [33]
  ED50: 0.15 mg/kg
Staphylococcus aureus [34]
  survival at 1 mg/kg: 100%
